Assay results as given in US20260193170A1 (University of Copenhagen, priority 2022, published 2026).

Molecular target: T1, human Keap1 Kelch domain (Homo sapiens, UniProt Q14145)
T1 construct: human Keap1 Kelch domain (residue 321-609, UniProt Q14145); made in house; host or cells: Escherichia coli BL21 (DE3) pLysS, pRSET A vector
Test: Fluorescence polarization (FP) competition assay, Cy5-Nrf2 peptide probe
Assay type: binding
Details: heterologous competition FP; Keap1 Kelch 14 nM, Cy5-Nrf2 probe 3 nM, 4% DMSO; mean ± SEM
Experimental: The binding affinities between the fluorescent peptide probe Cy5-Nrf2 (SEQ: Cy5-[…]-NH2) and the human Keap1 Kelch domain were determined as Kd values by saturation binding experiments, where increasing concentrations of Keap1 (0-300 nM) were added to a fixed concentration of peptide probe (3 nM). The assay was performed in a 1× HBSTET buffer (10 mM HEPES, 150 mM NaCl, 0.005% Tween20, 3 mM ethylenediaminetetraacetic acid (EDTA), 1 mM TCEP, pH=7.4) using black flat-bottom 384-well plates (Corning Life Sciences, NY), a volume of 30 μL/well, and a final DMSO concentration of 4% or 8%. The assay plate was spun down to ascertain proper mixing and removal of potential air bubbles and incubated for 10-15 min at room temperature before measuring the FP levels on a Safire2 plate reader (Tecan, Mannedorf, Switzerland). The g-factor was adjusted at each experiment so that a series of three blank wells containing probe but no Keap1 Kelch defined the baseline FP value. The Cy5-Nrf2 probe was measured at excitation/emission values of 635:670 nm. The FP values were fitted to the one-site specific binding equation: Y=Bmax×X/(Kd+X), with Bmax being the maximal FP value, X the Keap1 Kelch concentration, and Y the variable FP values. The Kd values were derived from the resulting binding saturation curve as being equal to the Keap1 Kelch concentration, where the curve is half-saturated.
The affinities between nonfluorescent small molecule Keap1 inhibitors and Keap1 Kelch were determined as Ki values in a heterologous competition FP binding assay. This was done by adding increasing concentration of test compound (2-fold serial dilutions, 12 concentrations tested per inhibition curve as duplicates) to a fixed concentration of Keap1 Kelch (14 nM) and the Cy5-Nrf2 peptide probe (3 nM) in the same HBSTET buffer and conditions as described above (final DMSO concentrations were 4%). FP values were fitted to the equation Y=Bottom+(Top−Bottom)/[1+(10^HillSlope×(log IC50−X))], where X is the logarithmic value of compound concentration. Hereby, the IC50 value was obtained, which together with the […] value and probe and Keap1 Kelch concentrations was used to calculate the theoretical competitive inhibition constant, the Ki value. 43 Ki values are shown as mean±SEM (standard error of mean) if based on two or more individual measurements.

T1 sequence (Q14145 321-609): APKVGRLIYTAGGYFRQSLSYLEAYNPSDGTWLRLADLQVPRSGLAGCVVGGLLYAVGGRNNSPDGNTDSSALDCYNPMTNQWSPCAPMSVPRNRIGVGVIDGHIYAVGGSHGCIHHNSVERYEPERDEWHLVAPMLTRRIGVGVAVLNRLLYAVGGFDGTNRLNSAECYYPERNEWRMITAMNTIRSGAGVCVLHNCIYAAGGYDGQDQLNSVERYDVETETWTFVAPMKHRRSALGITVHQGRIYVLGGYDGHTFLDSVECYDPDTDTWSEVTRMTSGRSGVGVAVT

Ki [µM] | SMILES
0.097 ± 0.013 | Cc1ccc(Cl)cc1C(CC(=O)O)c1ccc2ccc(OCC(=O)NC3CCCCCC3)cc2c1 (centres unmarked) [2v, 3-(5-chloro-2-methylphenyl)-3-(7-(2-(cycloheptylamino)-2-oxoethoxy)naphthalen-2-yl)propanoic acid]
0.014 ± 0.002 | Cc1cc2c(cc1C(CC(=O)O)c1ccc3ccc(OCC(=O)NC4CCCCCC4)cc3c1)OC(F)(F)O2 (centres unmarked) [2w, 3-(7-(2-(cycloheptylamino)-2-oxoethoxy)naphthalen-2-yl)-3-(2,2-difluoro-6-methylbenzo[d][1,3]dioxol-5-yl)propanoic acid]
0.009 ± 0.002 | O=C(O)CC(c1ccc2ccc(OCC(=O)NC3CCCCCC3)cc2c1)c1cc2c(cc1Cl)OCO2 (centres unmarked) [2z, 3-(6-chlorobenzo[d][1,3]dioxol-5-yl)-3-(7-(2-(cycloheptylamino)-2-oxoethoxy)naphthalen-2-yl)propanoic acid]
0.07 ± 0.003 | COc1ccc(C(CC(=O)O)c2ccc3ccc(OCC(=O)NC4CCCCC4)cc3c2)cc1 (centres unmarked) [3a, 3-(7-(2-(cyclohexylamino)-2-oxoethoxy)naphthalen-2-yl)-3-(4-methoxyphenyl)propanoic acid]
0.054 | COc1ccc(C(CC(=O)O)c2ccc3ccc(OCC(=O)NC4CCCCC4)cc3c2)c(C)c1 (centres unmarked) [3b, 3-(7-(2-(cyclohexylamino)-2-oxoethoxy)naphthalen-2-yl)-3-(4-methoxy-2-methylphenyl)propanoic acid]
0.168 ± 0.003 | COc1cc(C)c(C(CC(=O)O)c2ccc3ccc(OCC(=O)NC4CCCCC4)cc3c2)c(C)c1 (centres unmarked) [3c, 3-(7-(2-(cyclohexylamino)-2-oxoethoxy)naphthalen-2-yl)-3-(4-methoxy-2,6-dimethylphenyl)propanoic acid]
0.47 ± 0.047 | O=C(O)CC(c1cccc(Cl)c1)c1ccc2ccc(OCC(=O)NC3CCCCC3)cc2c1 (centres unmarked) [3d, 3-(3-chlorophenyl)-3-(7-(2-(cyclohexylamino)-2-oxoethoxy)naphthalen-2-yl)propanoic acid]
0.066 ± 0.006 | Cc1c(Cl)cccc1C(CC(=O)O)c1ccc2ccc(OCC(=O)NC3CCCCC3)cc2c1 (centres unmarked) [3e, 3-(3-chloro-2-methylphenyl)-3-(7-(2-(cyclohexylamino)-2-oxoethoxy)naphthalen-2-yl)propanoic acid]
0.059 ± 0.006 | O=C(O)CC(c1ccc2c(c1)OCO2)c1ccc2ccc(OCC(=O)NC3CCCCC3)cc2c1 (centres unmarked) [3f, 3-(benzo[d][1,3]dioxol-5-yl)-3-(7-(2-(cyclohexylamino)-2-oxoethoxy)naphthalen-2-yl)propanoic acid]
0.018 ± 0.006 | Cc1cc2c(cc1C(CC(=O)O)c1ccc3ccc(OCC(=O)NC4CCCCC4)cc3c1)OCO2 (centres unmarked) [3g, 3-(7-(2-(cyclohexylamino)-2-oxoethoxy)naphthalen-2-yl)-3-(6-methylbenzo[d][1,3]dioxol-5-yl)propanoic acid]
0.0048 ± 0.001 | CCn1nnc2c(C)c(C(CC(=O)O)c3ccc4ccc(OCC(=O)NC5CCCCC5)cc4c3)ccc21 (centres unmarked) [3h, 3-(7-(2-(cyclohexylamino)-2-oxoethoxy)naphthalen-2-yl)-3-(1-ethyl-4-methyl-1H-benzo[d][1,2,3]triazol-5-yl)propanoic acid]
0.082 ± 0.008 | O=C(O)CC(c1ccc2c(c1)CCO2)c1ccc2ccc(OCC(=O)NC3CCCCC3)cc2c1 (centres unmarked) [3i, 3-(7-(2-(cyclohexylamino)-2-oxoethoxy)naphthalen-2-yl)-3-(2,3-dihydrobenzofuran-5-yl)propanoic acid]
0.14 ± 0.011 | CC1(C)Oc2ccc(C(CC(=O)O)c3ccc4ccc(OCC(=O)NC5CCCCC5)cc4c3)cc2O1 (centres unmarked) [3j, 3-(7-(2-(cyclohexylamino)-2-oxoethoxy)naphthalen-2-yl)-3-(2,2-dimethylbenzo[d][1,3]dioxol-5-yl)propanoic acid]
0.052 ± 0.003 | O=C(O)CC(c1ccc2c(c1)OC(F)(F)O2)c1ccc2ccc(OCC(=O)NC3CCCCC3)cc2c1 (centres unmarked) [3k, 3-(7-(2-(cyclohexylamino)-2-oxoethoxy)naphthalen-2-yl)-3-(2,2-difluorobenzo[d][1,3]dioxol-5-yl)propanoic acid]
